The results in this text go back to ChEMBL document CHEMBL1201862, “PubChem BioAssay data set” (2004).

Among the test systems are 786-0; A498; CAKI-1; EKVX; HCT-15; HOP-62; LOX IMVI; NCI-H23; NCI-H522; OVCAR-3; OVCAR-4; SF-268; SF-295; SK-MEL-5; TK-10; UACC-257; UO-31; MDA-MB-435; NCI/ADR-RES.
What all share (experiment): NCI-60 cell line screen, 48 h

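Dose response: 5 concentrations. Exposure: 48 h. Format: 96-well plates. Endpoint: linear interpolation; highest concentration if not reached. The concentration for 50% growth inhibition is given as GI50.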 Active and inactive are the calls of the source. No stated cut-off is given here; in the data, active = GI50 up to about 1.1 µM and inactive = higher.

`O=C1CCC(=O)c2ccccc2N1`: the GI50 in the test on 786-0 was > 100 µM (inactive); in the test with A498, > 100 µM (inactive); in the test on CAKI-1, > 100 µM (inactive); with EKVX it was > 100 µM (inactive); in the test with HCT-15, more than 100 µM; in the test with HOP-62, > 100 µM (inactive). The GI50 with LOX IMVI, in the test on NCI-H23, in the test with NCI-H522, in the test on OVCAR-3, with OVCAR-4 and with SF-268 was > 100 µM (inactive) in each case. The GI50 in the test on SF-295, with SK-MEL-5, in the test with TK-10, with UACC-257 and in the test with UO-31 was > 100 µM (inactive) throughout.

Take `C#CCCCC(=C)C[C@@H]1OC(=O)[C@H](C)[C@@H]1O`: the GI50 with 786-0 was > 100 µM (inactive); with A498, > 100 µM (inactive); with CAKI-1 it was > 100 µM (inactive); with EKVX, > 100 µM (inactive); with HCT-15, more than 100 µM; in the test with HOP-62, > 100 µM (inactive). Besides, the GI50 with LOX IMVI, with MDA-MB-435, in the test on NCI-H23, in the test with NCI/ADR-RES, in the test with OVCAR-3 and in the test on OVCAR-4 was > 100 µM (inactive) throughout. The GI50 with SF-295, in the test on SK-MEL-5 and in the test on UO-31 was > 100 µM (inactive) each time.

In the case of `CCc1ccccc1NC(=O)C(=O)C(C(=O)c1ccc(OC)cc1)c1ccc(OC)cc1` (stereo not given), the GI50 is > 100 µM (inactive) in the test on 786-0; > 100 µM (inactive) with A498; > 100 µM (inactive) in the test on CAKI-1; > 100 µM (inactive) with EKVX; more than 100 µM in the test on HCT-15; > 100 µM (inactive) in the test on HOP-62. Besides, the GI50 in the test on LOX IMVI, with NCI-H23, with NCI-H522, with OVCAR-3, in the test with OVCAR-4 and with SF-268 was > 100 µM (inactive) throughout. Also, the GI50 in the test on SF-295, in the test on SK-MEL-5, in the test with TK-10, in the test with UACC-257 and in the test on UO-31 was > 100 µM (inactive) in each case.

With `Nc1nc2c(ncn2C2OC(CO)C(O)C2O)c(=O)o1` (stereo not given), the GI50 was > 100 µM (inactive) in the test on 786-0; > 100 µM (inactive) in the test on A498; > 100 µM (inactive) in the test on CAKI-1; > 100 µM (inactive) with EKVX; 42.9 µM in the test on HCT-15; > 100 µM (inactive) in the test with HOP-62. Further, the GI50 was > 58.2 µM (inactive) with LOX IMVI; > 84.1 µM (inactive) in the test on NCI-H23; 18.6 µM (inactive) in the test with NCI-H522; > 100 µM (inactive) with OVCAR-3; > 100 µM (inactive) with OVCAR-4; > 100 µM (inactive) in the test on SF-268. The GI50 was > 100 µM (inactive) with SF-295; > 100 µM (inactive) in the test on SK-MEL-5; > 100 µM (inactive) in the test with TK-10; > 100 µM (inactive) in the test on UACC-257; > 87.1 µM (inactive) in the test on UO-31.

For the compound `Cc1nc2ccccc2c(=O)n1-c1ccccc1F`, the GI50 was > 100 µM (inactive) in the test with 786-0; > 100 µM (inactive) in the test on A498; > 100 µM (inactive) in the test on CAKI-1; > 100 µM (inactive) with EKVX; more than 100 µM in the test with HCT-15; > 100 µM (inactive) in the test on HOP-62. Further, the GI50 in the test with LOX IMVI, in the test on NCI-H23, in the test with NCI-H522, in the test with OVCAR-3, in the test with OVCAR-4 and in the test on SF-268 was > 100 µM (inactive) in each case. The GI50 in the test on SF-295 was > 100 µM (inactive); with SK-MEL-5 it was > 100 µM (inactive); in the test on TK-10, > 100 µM (inactive); in the test with UACC-257 it was > 100 µM (inactive); in the test on UO-31, 74.3 µM (inactive).

On to `CN(OC(=O)CC(=O)c1ccccc1)C(=O)Cc1ccccc1`, for which the GI50 in the test with 786-0 was > 100 µM (inactive); with A498, > 100 µM (inactive); with CAKI-1, > 100 µM (inactive); with EKVX, > 100 µM (inactive); with HCT-15, more than 100 µM; in the test on HOP-62, > 100 µM (inactive). Also, the GI50 with LOX IMVI, with NCI-H23, in the test on NCI-H522, in the test on OVCAR-3, in the test with OVCAR-4 and with SF-268 was > 100 µM (inactive) in each case. In addition, the GI50 with SF-295, with SK-MEL-5, with TK-10, in the test with UACC-257 and with UO-31 was > 100 µM (inactive) throughout.

With `OCCN1CCN2C=C(C3CCCC4N(CCO)CCN34)CCC21` (stereo not given), the GI50 with 786-0 is 41.7 µM (inactive); in the test on A498, > 100 µM (inactive); in the test on CAKI-1, 48 µM (inactive); in the test on EKVX, > 69.7 µM (inactive); in the test on HCT-15, 27.9 µM; in the test on HOP-62, > 100 µM (inactive). The GI50 with LOX IMVI was 26.7 µM (inactive); with NCI-H23, 43 µM (inactive); in the test on NCI-H522, > 44 µM (inactive); in the test with OVCAR-3, 35.4 µM (inactive); with OVCAR-4, 52.8 µM (inactive); with SF-268, 49.8 µM (inactive). The GI50 in the test on SF-295 is 98.4 µM (inactive); in the test with SK-MEL-5 it was 41.9 µM (inactive); in the test with TK-10, > 53.5 µM (inactive); in the test with UACC-257 it was > 100 µM (inactive); in the test with UO-31, 97.3 µM (inactive).

`Cn1nc(-c2ccccc2)c(N=[N+]=[N-])cc1=O`: the GI50 is > 100 µM (inactive) with 786-0; > 100 µM (inactive) with A498; > 100 µM (inactive) in the test with CAKI-1; > 100 µM (inactive) with EKVX; more than 100 µM in the test on HCT-15; > 100 µM (inactive) in the test with HOP-62. For the same compound, the GI50 with LOX IMVI, in the test with NCI-H23, with NCI-H522, in the test on OVCAR-3, with OVCAR-4 and in the test with SF-268 was > 100 µM (inactive) in each case. Moreover, the GI50 with SF-295, with SK-MEL-5, in the test on TK-10, with UACC-257 and in the test on UO-31 was > 100 µM (inactive) in each case.

Take `Oc1ccc(-c2csc(N/N=C3\NC/C(=C/c4ccc5c(c4)OCO5)S3)n2)cc1O`: the GI50 was 30.6 µM (inactive) in the test with 786-0; 32.4 µM (inactive) with CAKI-1; 26.4 µM (inactive) with EKVX; 19.1 µM in the test on HCT-15; 22.1 µM (inactive) in the test with HOP-62; 11.6 µM (inactive) with LOX IMVI. The GI50 was 3.21 µM (inactive) in the test with MDA-MB-435; 9.95 µM (inactive) in the test with NCI-H23; 42 µM (inactive) with NCI/ADR-RES; 32.9 µM (inactive) in the test on OVCAR-4; 43.2 µM (inactive) with SF-295; 9.82 µM (inactive) with SK-MEL-5. Also, the GI50 in the test with TK-10 is 21.7 µM (inactive); with UACC-257, 14.6 µM (inactive); in the test on UO-31, 11.2 µM (inactive).

As for `CCCCCCCCCCCCCC(=O)OCC1OC(n2cc(F)c(=O)[nH]c2=O)C(NC(=O)OCc2ccccc2)C(OC(=O)CCCCCCCCCCCCC)C1O` (stereo not given), the GI50 in the test with 786-0 was > 100 µM (inactive); in the test on A498, > 100 µM (inactive); in the test on CAKI-1, > 100 µM (inactive); in the test with EKVX it was > 100 µM (inactive); in the test on HCT-15 it was more than 100 µM; in the test with HOP-62, > 100 µM (inactive). Also, the GI50 in the test with LOX IMVI, in the test on NCI-H23, in the test with NCI-H522, in the test on OVCAR-3, in the test on OVCAR-4 and in the test on SF-268 was > 100 µM (inactive) in each case. Further, the GI50 with SF-295 is 22.9 µM (inactive); in the test with SK-MEL-5 it was > 100 µM (inactive); in the test on TK-10 it was > 100 µM (inactive); in the test with UACC-257, > 100 µM (inactive); with UO-31, > 100 µM (inactive).

For `Cc1ccc(S(=O)(=O)N2CCC3(C(/C=C/c4ccccc4)=Nc4ccccc43)C2c2ccccc2)cc1` (stereo not given), the GI50 is > 100 µM (inactive) in the test on 786-0; > 100 µM (inactive) in the test on A498; > 100 µM (inactive) with CAKI-1; > 100 µM (inactive) in the test with EKVX; more than 100 µM in the test with HCT-15; 63.5 µM (inactive) in the test on HOP-62. Moreover, the GI50 in the test with LOX IMVI, in the test with NCI-H23, in the test with NCI-H522, with OVCAR-3, in the test on OVCAR-4 and in the test with SF-268 was > 100 µM (inactive) in each case. The GI50 is > 100 µM (inactive) in the test on SF-295; > 100 µM (inactive) in the test with SK-MEL-5; > 100 µM (inactive) in the test on TK-10; > 100 µM (inactive) in the test on UACC-257; 61.7 µM (inactive) with UO-31.

In the case of `CCCCCCCCCCCCCCCCCC[N+](C)(C)Cc1ccc(C[N+](C)(C)CCCCCCCCCCCCCCCCCC)cc1`, the GI50 was 12.7 µM (inactive) in the test with 786-0; 22.8 µM (inactive) in the test with A498; 21.2 µM (inactive) in the test on CAKI-1; 18.9 µM (inactive) in the test with EKVX; 28 µM in the test on HCT-15; 4.41 µM (inactive) in the test with HOP-62. Further, the GI50 in the test with LOX IMVI is 13.6 µM (inactive); with NCI-H23 it was 4.09 µM (inactive); with NCI-H522 it was 2.97 µM (inactive); in the test on OVCAR-3, 7.01 µM (inactive); with OVCAR-4 it was 9.53 µM (inactive); with SF-268, 21.7 µM (inactive). Further, the GI50 was 11.3 µM (inactive) with SF-295; 22.8 µM (inactive) with SK-MEL-5; 13.6 µM (inactive) with TK-10; 15.9 µM (inactive) in the test on UACC-257; 27.7 µM (inactive) in the test with UO-31.
